In patent US5711966A, “Method of treating malaria with desbutylhalofantrine” (priority 1996, dated 1998):
“Also recorded” adds a separate entry of the source. Read-outs that look alike come from different tables or passages of the source.

Key:
[1] = cited from earlier work; for arrhythmia torsades de pointes: in patients receiving the drug; for cardiotoxicity / potentially fatal arrhythmias: use for treatment of malaria
[2] = test system: isolated perfused cat heart (QT interval); assay: QT interval prolongation in isolated perfused heart; conditions: concentrations from 1 to 20 μM, pacing cycle length 400 msec
Protocol: Comparative studies evaluating prolongation of the QT interval using quinidine, halofantrine, and desbutylhalofantrine were performed on isolated perfused animal hearts. […] The ability to treat malaria with this metabolite without causing cardiotoxicity greatly improves the safety of antimalarial treatment.
(§1) A comparison of the parent drug, halofantrine with the metabolite desbutylhalofantrine was conducted to determine which agent was primarily responsible for QT interval prolongation. The effects of halofantrine and its active metabolite (N-desbutylhalofantrine) on repolarization were examined in an isolated perfused heart model. […] In an attempt to further elucidate the mechanism for QT interval prolongation, the effects of racemic halofantrine, its stereoisomers and N-desbutylhalofantrine on repolarizing currents in isolated ventricular myocytes were studied using patch-clamp techniques.
The effects of halofantrine and its metabolite on repolarization were examined in the isolated perfused cat heart by the method of Woosley, et al. (JAMA 269:1532-1536 (1993)). Briefly, hearts were obtained from healthy, mature anesthetized cats and perfused in a Lagendorff apparatus maintained at 37° C. […] The AV node was destroyed by cautery to produce complete heart block and allow observations at slow cycle lengths. […]

[3] = test system: delayed rectifier potassium channel; assay: Block of repolarizing current (delayed rectifier potassium channel) in isolated ventricular myocytes, whole cell patch-clamp; format: cell-based; conditions: isolated feline myocytes
Protocol: as §1
Individual Cardiac Myocytes:
The cardiac electro-pharmacologic effects of halofantrine, its stereoisomers and N-desbutylhalofantrine on repolarizing currents such as the delayed rectifier potassium channel were studied in feline ventricular myocytes in vitro by the method described by Woosley, et al. (JAMA 269:1532-1536 (1993)). Briefly, rod-shaped and quiescent ventricular cells were obtained and used for electrophysiological recordings using the whole cell, single-suction pipette, voltage-clamp ("patch-clamp") technique. Computer-controlled voltage clamp pulses (duration 750 ms) were used to elicit currents. Current signals were directed to a computer for storage and data analysis. […]

[4] = test system: malaria; conditions: teaching of U.S. Pat. No. 5,250,734 to Rossignol, et al; cited from earlier work
[5] = test system: Plasmodium falciparum; assay: In vitro studies against various clones of Plasmodium falciparum; format: cell-based
Protocol: Dosage of 500 mg every six hours for three doses on day one with repeat of that dosage on day 7 for a total dosage of 3000 mg is appropriate for most treatment purposes in adults. However, total dosage range of 50 to 5000 mg can be given depending on the condition, age and size of the patient. Desbutylhalofantrine may also be given at dosage of 50 to 1000 mg as a prophylactic measure. Dosage may be given daily or one day per week. Again, dosage will be determined by the clinician in accord with the needs of the particular patient. When given as a prophylactic agent, the administration may be continued for several months.

Row | SMILES | arrhythmia torsades de pointes [1] | prolongation of the QT interval [2] | also measured
1 | C=C[C@H]1C[N@@]2CC[C@H]1C[C@@H]2[C@@H](O)c1ccnc2ccc(OC)cc12 [quinidine] | torsades de pointes has been seen in patients |  | 
2 | CCCCN(CCCC)CCC(O)c1cc2c(Cl)cc(Cl)cc2c2cc(C(F)(F)F)ccc12 (racemic) [halofantrine] | torsades de pointes has been seen in patients | resulted in prolongation of the QT interval | cardiotoxicity / potentially fatal arrhythmias [1]: can induce potentially fatal arrhythmias; cardiotoxicity / potentially fatal arrhythmias ([1]; listed as Halofantrine): has been shown to cause cardiotoxicity; block of the delayed rectifier potassium channel [3]: produced a stereo-selective block of the delayed rectifier potassium channel
3 | CCN(CC)CCCC(C)Nc1ccnc2cc(Cl)ccc12 (centres unmarked) [chloroquine] | torsades de pointes has been seen in patients |  | 
4 | CCCCNCCC(O)c1cc2c(Cl)cc(Cl)cc2c2cc(C(F)(F)F)ccc12 (centres unmarked) [desbutylhalofantrine] |  | did not prolong the QT interval even when concentrations were increased to twenty fold the concentration at which halofantrine resulted in prolongation of the QT interval; also recorded: had minimal effect on the QT interval relative to the baseline | effectiveness for treatment of malaria relative to halofantrine [4]: less effective than halofantrine for treatment of malaria; potency relative to parent compound halofantrine against clones of Plasmodium falciparum [5]: approximately equipotent with the parent compound
5 | C=C[C@H]1C[N@@]2CC[C@H]1C[C@H]2[C@H](O)c1ccnc2ccc(OC)cc12 [quinine] | torsades de pointes has been seen in patients |  | 
